In ChEMBL document CHEMBL5465560, “Selectivity Literature for EUbOPEN Chemogenomic Library” (2024):

How the values were obtained:
[1] = target: Activin receptor type-2B (Homo sapiens) (UniProt Q13705); settings: at 10 µM
[2] = target: T1, Serine/threonine-protein kinase Nek11 (Homo sapiens) (UniProt Q8NG66); test: Selectivity interaction (KinomeScan (DiscoverX)) EUB0000695a NEK11; settings: at 100 nM
T1 sequence (whole entry): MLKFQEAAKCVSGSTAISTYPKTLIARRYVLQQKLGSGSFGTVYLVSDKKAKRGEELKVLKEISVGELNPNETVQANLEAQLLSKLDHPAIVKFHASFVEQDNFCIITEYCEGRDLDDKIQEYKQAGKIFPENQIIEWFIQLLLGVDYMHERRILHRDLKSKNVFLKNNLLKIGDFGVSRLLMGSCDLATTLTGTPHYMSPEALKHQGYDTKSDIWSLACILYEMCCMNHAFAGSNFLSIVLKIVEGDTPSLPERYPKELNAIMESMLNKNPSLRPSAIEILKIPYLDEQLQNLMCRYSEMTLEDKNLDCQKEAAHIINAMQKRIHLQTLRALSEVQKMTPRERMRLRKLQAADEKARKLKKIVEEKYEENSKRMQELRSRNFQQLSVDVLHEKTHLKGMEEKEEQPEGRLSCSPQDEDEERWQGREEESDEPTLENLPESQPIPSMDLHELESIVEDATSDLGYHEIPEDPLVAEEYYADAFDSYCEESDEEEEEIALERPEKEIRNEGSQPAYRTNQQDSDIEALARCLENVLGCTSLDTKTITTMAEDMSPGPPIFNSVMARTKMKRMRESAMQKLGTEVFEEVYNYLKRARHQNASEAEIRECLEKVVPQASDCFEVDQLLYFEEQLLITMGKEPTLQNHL

[3] = target: T2, Phosphatidylinositol 3-kinase C2 domain-containing subunit gamma (Homo sapiens) (UniProt O75747); test: Selectivity interaction (KinomeScan (DiscoverX)) EUB0000595a PIK3C2G; settings: at 10 µM
T2 sequence (whole entry): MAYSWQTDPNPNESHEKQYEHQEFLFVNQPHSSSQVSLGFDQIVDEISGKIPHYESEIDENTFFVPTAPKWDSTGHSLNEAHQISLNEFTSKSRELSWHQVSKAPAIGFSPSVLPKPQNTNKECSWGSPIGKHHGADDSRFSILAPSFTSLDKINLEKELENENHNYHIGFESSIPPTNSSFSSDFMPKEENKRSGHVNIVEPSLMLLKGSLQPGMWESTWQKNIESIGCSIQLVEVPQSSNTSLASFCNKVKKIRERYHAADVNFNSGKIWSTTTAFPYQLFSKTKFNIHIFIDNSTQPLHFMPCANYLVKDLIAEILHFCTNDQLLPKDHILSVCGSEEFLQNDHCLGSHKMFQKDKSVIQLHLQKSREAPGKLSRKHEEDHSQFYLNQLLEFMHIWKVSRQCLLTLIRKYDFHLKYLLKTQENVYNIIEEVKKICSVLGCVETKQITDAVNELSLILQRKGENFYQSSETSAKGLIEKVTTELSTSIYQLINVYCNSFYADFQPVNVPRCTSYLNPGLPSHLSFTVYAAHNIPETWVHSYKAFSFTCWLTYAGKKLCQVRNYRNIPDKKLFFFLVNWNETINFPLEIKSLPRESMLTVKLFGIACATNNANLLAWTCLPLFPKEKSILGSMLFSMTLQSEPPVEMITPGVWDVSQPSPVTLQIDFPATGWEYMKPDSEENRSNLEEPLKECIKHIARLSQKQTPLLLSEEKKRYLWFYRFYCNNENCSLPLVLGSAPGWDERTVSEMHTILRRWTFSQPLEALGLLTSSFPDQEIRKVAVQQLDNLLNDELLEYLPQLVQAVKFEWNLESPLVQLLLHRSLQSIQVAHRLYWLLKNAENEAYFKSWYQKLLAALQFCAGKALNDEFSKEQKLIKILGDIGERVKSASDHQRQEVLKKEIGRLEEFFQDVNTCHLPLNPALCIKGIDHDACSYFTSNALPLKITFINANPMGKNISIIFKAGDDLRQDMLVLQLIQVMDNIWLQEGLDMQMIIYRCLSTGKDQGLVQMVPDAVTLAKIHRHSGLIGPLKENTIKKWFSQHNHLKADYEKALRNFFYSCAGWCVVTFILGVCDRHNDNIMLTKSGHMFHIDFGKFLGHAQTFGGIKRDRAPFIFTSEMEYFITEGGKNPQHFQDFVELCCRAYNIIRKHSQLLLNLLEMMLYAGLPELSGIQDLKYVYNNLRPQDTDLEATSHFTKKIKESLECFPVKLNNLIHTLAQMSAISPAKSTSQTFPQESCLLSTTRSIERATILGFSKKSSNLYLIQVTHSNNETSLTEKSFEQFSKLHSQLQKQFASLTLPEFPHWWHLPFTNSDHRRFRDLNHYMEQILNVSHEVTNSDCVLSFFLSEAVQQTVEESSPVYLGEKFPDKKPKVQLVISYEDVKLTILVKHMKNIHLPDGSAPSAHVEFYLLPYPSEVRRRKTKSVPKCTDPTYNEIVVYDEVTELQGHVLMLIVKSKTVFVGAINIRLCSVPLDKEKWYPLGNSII

[4] = target: SRSF protein kinase 3 (Homo sapiens) (UniProt Q9UPE1); test: Selectivity interaction (ProQinase) EUB0000171b SRPK3
[5] = target: Serine/threonine-protein kinase SIK2 (Homo sapiens) (UniProt Q9H0K1); test: Selectivity interaction (ProQinase) EUB0000171b SIK2
[6] = Selectivity interaction (KinomeScan (DiscoverX)) EUB0001619a PKNB; settings: at 1 µM
[7] = target: T3, Dual specificity mitogen-activated protein kinase kinase 5 (Homo sapiens) (UniProt Q13163); test: Selectivity interaction (KinomeScan (DiscoverX)) EUB0000666a MAP2K5; settings: at 10 µM
T3 sequence (whole entry): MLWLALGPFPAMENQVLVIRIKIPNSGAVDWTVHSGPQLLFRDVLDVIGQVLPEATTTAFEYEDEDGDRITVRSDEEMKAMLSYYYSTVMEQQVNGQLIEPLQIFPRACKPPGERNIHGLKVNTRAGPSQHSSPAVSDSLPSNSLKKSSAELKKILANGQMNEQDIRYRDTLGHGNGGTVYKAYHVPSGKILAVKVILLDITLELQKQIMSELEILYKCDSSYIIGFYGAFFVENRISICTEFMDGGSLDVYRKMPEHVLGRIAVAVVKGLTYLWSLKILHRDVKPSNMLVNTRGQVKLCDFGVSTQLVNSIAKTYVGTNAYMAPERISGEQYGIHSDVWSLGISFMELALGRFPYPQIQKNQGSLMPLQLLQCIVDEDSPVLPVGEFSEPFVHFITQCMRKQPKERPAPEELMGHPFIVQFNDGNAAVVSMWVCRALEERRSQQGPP

Serine/threonine-protein kinase SIK2 (Homo sapiens), sequence (Q9H0K1 whole entry, looked up): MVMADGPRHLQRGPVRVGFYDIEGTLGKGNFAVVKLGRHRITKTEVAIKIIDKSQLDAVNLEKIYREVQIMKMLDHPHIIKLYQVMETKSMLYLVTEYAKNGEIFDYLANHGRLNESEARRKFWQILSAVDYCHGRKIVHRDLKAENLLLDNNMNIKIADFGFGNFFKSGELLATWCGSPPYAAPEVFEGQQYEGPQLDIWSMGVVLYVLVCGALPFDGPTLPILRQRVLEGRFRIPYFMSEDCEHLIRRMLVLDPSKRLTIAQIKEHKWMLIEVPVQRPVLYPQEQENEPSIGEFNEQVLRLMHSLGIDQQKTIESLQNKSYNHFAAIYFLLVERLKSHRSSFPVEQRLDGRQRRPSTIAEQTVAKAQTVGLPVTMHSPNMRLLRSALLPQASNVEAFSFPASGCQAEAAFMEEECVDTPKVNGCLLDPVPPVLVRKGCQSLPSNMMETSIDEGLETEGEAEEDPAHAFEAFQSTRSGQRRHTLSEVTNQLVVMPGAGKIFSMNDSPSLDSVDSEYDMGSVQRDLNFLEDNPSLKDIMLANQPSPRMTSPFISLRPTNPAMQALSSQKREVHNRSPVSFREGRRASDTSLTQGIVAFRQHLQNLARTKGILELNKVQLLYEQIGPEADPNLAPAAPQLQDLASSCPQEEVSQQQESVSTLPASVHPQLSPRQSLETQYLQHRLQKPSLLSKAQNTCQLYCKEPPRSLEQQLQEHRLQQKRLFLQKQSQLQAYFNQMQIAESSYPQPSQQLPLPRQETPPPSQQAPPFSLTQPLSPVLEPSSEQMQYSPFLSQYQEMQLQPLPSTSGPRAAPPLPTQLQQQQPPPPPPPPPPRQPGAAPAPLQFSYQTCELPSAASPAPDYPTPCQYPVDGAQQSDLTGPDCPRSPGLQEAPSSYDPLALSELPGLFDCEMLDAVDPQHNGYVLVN
SRSF protein kinase 3 (Homo sapiens), sequence (Q9UPE1 whole entry): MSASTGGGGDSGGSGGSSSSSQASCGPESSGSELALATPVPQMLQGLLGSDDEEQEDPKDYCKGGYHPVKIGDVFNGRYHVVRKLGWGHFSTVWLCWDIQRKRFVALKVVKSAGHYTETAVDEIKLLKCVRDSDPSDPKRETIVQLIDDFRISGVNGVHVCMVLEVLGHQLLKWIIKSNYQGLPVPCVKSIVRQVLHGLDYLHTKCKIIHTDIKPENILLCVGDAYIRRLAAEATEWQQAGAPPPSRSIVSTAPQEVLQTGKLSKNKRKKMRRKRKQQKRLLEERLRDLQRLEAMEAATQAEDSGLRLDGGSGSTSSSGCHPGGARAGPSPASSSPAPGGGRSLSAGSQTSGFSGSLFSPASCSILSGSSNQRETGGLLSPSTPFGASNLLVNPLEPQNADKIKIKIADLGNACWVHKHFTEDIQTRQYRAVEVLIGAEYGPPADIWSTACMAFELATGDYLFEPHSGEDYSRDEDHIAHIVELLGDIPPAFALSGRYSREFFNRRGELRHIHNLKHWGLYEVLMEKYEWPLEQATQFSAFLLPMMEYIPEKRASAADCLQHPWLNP
Activin receptor type-2B (Homo sapiens), sequence (Q13705 whole entry): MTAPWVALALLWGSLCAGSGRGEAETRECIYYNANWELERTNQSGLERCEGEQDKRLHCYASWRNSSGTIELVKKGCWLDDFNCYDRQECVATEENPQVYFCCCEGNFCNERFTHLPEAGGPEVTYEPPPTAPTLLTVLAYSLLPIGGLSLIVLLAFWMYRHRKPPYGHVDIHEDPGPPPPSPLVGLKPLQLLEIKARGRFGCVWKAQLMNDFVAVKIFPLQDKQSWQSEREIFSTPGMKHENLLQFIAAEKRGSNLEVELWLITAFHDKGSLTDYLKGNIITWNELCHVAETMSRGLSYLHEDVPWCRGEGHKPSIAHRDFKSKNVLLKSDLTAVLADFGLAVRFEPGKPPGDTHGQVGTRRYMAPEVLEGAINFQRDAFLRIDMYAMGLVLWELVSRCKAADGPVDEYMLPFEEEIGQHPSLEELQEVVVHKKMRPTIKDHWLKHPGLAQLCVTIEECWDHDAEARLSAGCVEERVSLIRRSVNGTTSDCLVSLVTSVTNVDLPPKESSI

Cc1cc([C@@H](C)Nc2ccccc2C(=O)O)c2nc(N3CCOCC3)cc(=O)n2c1 [AZD-6482]
% of control [1]: 100%

Cc1cc(F)c(C(=O)Nc2cccc(-c3nncn3C(C)C)n2)cc1-n1cnc(C2CC2)c1
% of control [2]: 78%

COCC(=O)NC/C=C/c1ccc2ncnc(Nc3ccc(Oc4ccc(C)nc4)c(C)c3)c2c1 [CP-724714]
% of control [3]: 24%

C=CC(=O)Nc1cccc(C(=O)Nc2ccc(Nc3cc(-c4[nH]c(SC)nc4C)ccn3)cc2)c1
% of control ([4]; at 1 µM): 97%
% of control ([4]; at 5 µM): 101%
% of control ([5]; at 1 µM): 108%
% of control ([5]; at 5 µM): 90%

N#Cc1cccc(-c2c[nH]c3ncnc(N4CCOCC4)c23)c1
% of control [6]: 47%

O=C(NOC[C@H](O)CO)c1ccc(F)c(F)c1Nc1ccc(I)cc1F
% of control [7]: 86%
